Results published in patent US8361758B2, “Microorganism of Corynebacterium genus having resistance to kanamycin and enhanced L-lysine productivity and method of producing L-lysine using the same” (priority 2005, dated 2013).

Legend:
[1] = tested on: Corynebacterium glutamicum KFCC10881-CJP5103; assay: Resistance to kanamycin: growth on minimal agar plate medium containing kanamycin; assay type: cell-based; conditions: Kanamycin 5 mg/l, cultured four days, kanamycin-resistant mutant
Procedure: (§1) Next, an experiment of resistance to kanamycin with respect to the selected mutant resistant to kanamycin, Corynebacterium glutamicum KFCC10881-CJP5103, and the parent bacteria was performed. First, the two microorganisms were cultured in a Luria Bertani (LB) liquid medium for 16 hours, and then the cells were washed using sterile normal saline two times. Then, the washed cells were properly diluted and the resulting product was cultured in a minimal agar plate medium containing kanamycin having a concentration of 5 mg/l for four days to measure productivity of each microorganism. A composition of the minimal agar plate medium is the same as follows: 10 g of glucose, 2 g of (NH4)2SO4, 2 g of urea, 1.0 g of KH2PO4, 3.0 g of K2HPO4, 0.5 g of MgSO4.7H2O, 10 mg of FeSO4.7H2O, 10 mg of MnSO4.7H2O, 100 μg of biotin, 100 lag of thiamine. HCl, 100 μg of CaCl2.2H2O, 80 μg of Na2B4O7.10H2O, 40 μg of (NH4)6MoO27.4H2O, 10 μg of ZnSO4.7 H2O, 300 μg of CuSO4.7 H2O, 10 μg of MnCl2.4H2O, 1 mg of FeCl3.6H2O, 20 g of agar, 0.1 g of L-leucine if necessary, 0.1 g of L-threonine if necessary, 0.1 g of L-methionine if necessary, per 1 L of distilled water (pH 7.0).
(§2) The results of measuring productivity of the mutant and the parent bacteria in a kanamycin-containing medium are shown in Table. 1.

[2] = tested on: Corynebacterium glutamicum KFCC10881; assay: as above; assay type: cell-based; conditions: Kanamycin 5 mg/l, cultured four days, parent strain
Procedure: as §1, §2

`NC[C@H]1O[C@H](O[C@H]2[C@H](O)[C@@H](O[C@H]3O[C@H](CO)[C@@H](O)[C@H](N)[C@H]3O)[C@H](N)C[C@@H]2N)[C@H](O)[C@@H](O)[C@@H]1O` [Kanamycin, kanamycin] was tested, and the “Growth of KFCC-10881-CJP5103 in kanamycin-containing medium” value [1] was “+++” and the “Growth of KFCC-10881 in kanamycin-containing medium” value [2] was “−”.
